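Tested at 5 concentrations; 48 h exposure; 96-well plates; endpoints linearly interpolated, else capped at highest concentration. Abbreviation: GI50, concentration required for 50% inhibition of growth. TGI: total growth inhibition.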
Tests used:
Test in all cases: NCI-60 cell line screen, 48 h
[1] = test system: COLO 205 colon
[2] = test system: HCC-2998 colon
[3] = test system: MALME-3M melanoma
[4] = test system: MDA-MB-231 breast
[5] = test system: NCI-H460 lung
[6] = test system: RPMI-8226 leukemia
[7] = test system: RXF 393 renal
[8] = test system: SN12C renal
[9] = test system: SR leukemia
[10] = test system: SK-MEL-2 melanoma

SMILES | TGI [1] [µM] | TGI [2] [µM] | TGI [3] [µM] | TGI [4] [µM] | TGI [5] [µM] | TGI [6] [µM] | TGI [7] [µM] | TGI [8] [µM] | TGI [9] [µM] | TGI [10] [µM] | GI50 [1] [µM] | GI50 [2] [µM] | GI50 [3] [µM] | GI50 [4] [µM] | GI50 [5] [µM] | GI50 [6] [µM] | GI50 [7] [µM] | GI50 [10] [µM] | GI50 [8] [µM] | GI50 [9] [µM]
O=[N+]([O-])/C(C(Cl)=C(Cl)Cl)=C(/Nc1ccccc1)Sc1ccccc1 | 34.8 | 32.8 | 31.8 | 37.6 | 41.6 | 66.1 | 40.3 | 97.5 | 43 | – | – | – | – | – | – | – | – | – | – | –
O=C(Nc1ccc2ccccc2c1)c1cc2cc(CCl)ccc2oc1=O | > 100 | > 100 | > 100 | > 100 | > 100 | > 100 | 54.1 | > 100 | > 100 | 63.3 | – | – | – | – | – | – | – | – | – | –
CSCCCNC(=O)[C@H](CSC)NC(=O)c1csc(CCNC(=O)[C@@H](NSc2ccccc2[N+](=O)[O-])C(C)O)n1 (stereo partly specified) | > 100 | > 100 | > 100 | > 100 | > 100 | – | > 100 | > 100 | > 100 | > 100 | – | – | – | – | – | – | – | – | – | –
COC1CC(OC2C(C)OC(OC3C(C)OC(OC4C(C)OC(O[C@H]5CC[C@@]6(C)C(=CC[C@]7(O)[C@@H]6C[C@@H](O)[C@@]6(C)[C@]7(O)CC[C@@]6(O)C(C)=O)C5)CC4OC)CC3OC)CC2OC)OC(C)C1O (stereo partly specified) | > 12.5 | > 12.5 | > 12.5 | > 12.5 | – | > 12.5 | – | > 12.5 | > 12.5 | > 12.5 | – | – | – | – | – | – | – | – | – | –
Cc1ccc(NC(=O)CC(=O)n2nc(C)c(N=Nc3cccc(C)c3)c2C)cc1 | > 100 | > 100 | > 100 | > 100 | > 100 | > 100 | > 100 | > 100 | > 100 | > 100 | – | – | – | – | – | – | – | – | – | –
C[C@H](CCC(=O)NCC(=O)O)[C@H]1CC[C@H]2[C@@H]3[C@H](O)C[C@@H]4C[C@H](O)CC[C@]4(C)[C@H]3CC[C@]12C | > 100 | > 100 | > 100 | > 100 | > 100 | > 100 | > 100 | > 100 | > 100 | > 100 | – | – | – | – | – | – | – | – | – | –
CCCCC[C@H]1CCCCCCCCCC(=O)OC2C(O[C@@H]3OC(C)[C@H](OC(=O)[C@@H](C)CC)C(O[C@@H]4OC(C)[C@H](O)C(O)[C@@H]4O)[C@@H]3OC(=O)[C@H](C)CC)[C@H](OC3C(O)[C@@H](O)C(C)O[C@H]3O1)OC(CO)[C@H]2O (stereo partly specified) | 25 | 31.8 | 28.8 | 30.7 | 32.5 | 30.5 | – | 31.3 | 34.7 | 30.5 | – | – | – | – | – | – | – | – | – | –
Cc1ccc2c(c1C)C(=O)/C(=C/c1cccc(C)c1C(=O)O)C2 | > 100 | > 100 | > 100 | > 100 | > 100 | > 100 | > 100 | > 100 | > 100 | > 100 | – | – | – | – | – | – | – | – | – | –
CC(=O)c1sc2[n+](c1C)C(=O)/C(=C\c1ccccc1Cl)S2 | 28 | 37.6 | 32.4 | 52.9 | 30.2 | 49.3 | 47.4 | 78.8 | 52.5 | 55.8 | – | – | – | – | – | – | – | – | – | –
COC(=O)C(NC(=O)OC(C)(C)C)P(=O)(OC)OC (stereo unspecified) | > 100 | – | > 100 | > 100 | – | > 100 | > 100 | > 100 | > 100 | > 100 | – | – | – | – | – | – | – | – | – | –
CN(C)CCCNC(=O)c1cn2c(ccc3sc4ccccc4c(=O)c32)n1 | 7.95 | 25.4 | 24.4 | 2.93 | 2.73 | 5.36 | 21.8 | 9.57 | 30 | 38.4 | – | – | – | – | – | – | – | – | – | –
Cc1cc(=O)oc2c(CNC(CC(C)C)C(=O)O)c(O)ccc12 (stereo unspecified) | > 100 | > 100 | > 100 | > 100 | > 100 | > 100 | > 100 | > 100 | > 100 | > 100 | – | – | – | – | – | – | – | – | – | –
COc1cc2c3c(cc(Cl)nc3c1OC)C(O)(CC(=O)c1ccccc1)C(=O)N2 (stereo unspecified) | 52.4 | 35.7 | 4.04 | 31.2 | 43.1 | > 26.3 | 27.4 | 19.3 | > 29 | 30 | – | – | – | – | – | – | – | – | – | –
COc1cc(/C=N/NC2=NCCN2)ccc1O | > 100 | > 100 | > 100 | > 100 | > 100 | > 100 | > 100 | > 100 | > 100 | > 100 | – | – | – | – | – | – | – | – | – | –
N#Cc1nc(/C=C/c2cccnc2)oc1N | > 100 | > 100 | > 100 | > 100 | > 100 | > 100 | > 100 | > 100 | > 100 | > 100 | – | – | – | – | – | – | – | – | – | –
O=C1c2cc([N+](=O)[O-])sc2C(=O)c2c([N+](=O)[O-])csc21 | 3.26 | 2.3 | 0.753 | 2.19 | 3.5 | 0.934 | 1.76 | 1.09 | 0.173 | 3.77 | – | – | – | – | – | – | – | – | – | –

SMILES | TGI [1] [µM] | TGI [2] [µM] | TGI [3] [µM] | TGI [4] [µM] | TGI [5] [µM] | TGI [6] [µM] | TGI [7] [µM] | TGI [8] [µM] | TGI [9] [µM] | TGI [10] [µM] | GI50 [1] [µM] | GI50 [2] [µM] | GI50 [3] [µM] | GI50 [4] [µM] | GI50 [5] [µM] | GI50 [6] [µM] | GI50 [7] [µM] | GI50 [10] [µM] | GI50 [8] [µM] | GI50 [9] [µM]
C=C(C)[C@@H]1CC[C@]2(C(=O)NC(C)=O)CC[C@]3(C)[C@H](CC[C@@H]4[C@@]5(C)CCCNC(C)(C)[C@@H]5CC[C@]43C)[C@@H]12 | 2.98 | 2.69 | 2.65 | 3.29 | 3.13 | 3.4 | 3.26 | 2.79 | 3.07 | 3.73 | 1.19 | 1.31 | 1.34 | 1.82 | 1.64 | 1.18 | 1.76 | 1.92 | 1.47 | 0.839
O=C1C(c2c(O)[nH]c3ccc(S(=O)(=O)NCCO)cc23)=Nc2ccccc21 | > 100 | > 100 | > 100 | 31.6 | > 100 | > 100 | 18.9 | > 100 | 21.6 | 17.9 | – | – | – | – | – | – | – | – | – | –
CN(C)CCNC(=O)c1c(O)ccc2c1c1c(n2CCc2ccccc2)C(=O)c2ccccc2C1=O | 34.4 | 2.96 | 9.35 | 15 | 11.4 | 11.6 | 5.17 | 20 | 7.11 | 10.7 | – | – | – | – | – | – | – | – | – | –
Clc1cc2nnn(C3CCCO3)c2cc1Cl (stereo unspecified) | > 100 | > 100 | > 100 | > 100 | > 100 | – | > 100 | > 100 | > 100 | > 100 | – | – | – | – | – | – | – | – | – | –
c1cc2c(cc1C1=NCCN1)c1cc(C3=NCCN3)ccc1n2CC1CCCCC1 | 20.4 | – | 23.8 | > 100 | 34.5 | > 100 | > 100 | 80.1 | 38.6 | 34.6 | – | – | – | – | – | – | – | – | – | –
CC/C(N)=N\NC(=O)OC(C)(C)C | > 100 | > 100 | > 100 | > 100 | – | > 100 | > 100 | > 100 | > 100 | > 100 | – | – | – | – | – | – | – | – | – | –
Cc1ccc(/C=C2\N=C(N3CCCC(CO)C3)NC2=O)cc1 (stereo unspecified) | > 100 | > 100 | > 100 | > 100 | – | > 100 | > 100 | > 100 | > 100 | > 100 | – | – | – | – | – | – | – | – | – | –
COc1ccc2c(c1)CCC/C2=N\NS(=O)(=O)c1c(C)cc(C)cc1C | 57.2 | > 100 | 48.8 | > 100 | 95.3 | – | – | 45.5 | 49.5 | > 100 | – | – | – | – | – | – | – | – | – | –
CC(NC(=O)C(Cc1ccc(OC(=O)c2ccccc2)cc1)NC(=O)OC(C)(C)C)C(=O)NCC(=O)NC(Cc1ccccc1)C(=O)NN (stereo unspecified) | 53.2 | – | > 100 | > 100 | > 100 | 38.1 | > 100 | – | 56.9 | – | – | – | – | – | – | – | – | – | – | –
O=C1CC(c2ccccc2)S(=O)c2ccccc2N1 (stereo unspecified) | > 100 | – | > 100 | > 100 | > 100 | > 100 | – | > 100 | > 100 | – | – | – | – | – | – | – | – | – | – | –
CC(C)c1ccc(/C=C2\CSCC3=C2N=C2SCC(=O)N2C3c2ccc(C(C)C)cc2)cc1 (stereo unspecified) | > 100 | > 100 | > 100 | > 100 | > 100 | > 100 | – | > 100 | > 100 | > 100 | – | – | – | – | – | – | – | – | – | –
N#Cc1nc(-c2cccc(-c3nc(C#N)c(N)o3)n2)oc1N | > 100 | > 100 | > 100 | > 100 | > 100 | > 100 | – | > 100 | > 100 | > 100 | – | – | – | – | – | – | – | – | – | –
Cc1cc2ccc(N)nc2[nH]c1=O | > 100 | – | > 100 | > 100 | > 100 | > 100 | > 100 | > 100 | > 100 | > 100 | – | – | – | – | – | – | – | – | – | –
CCNC(=S)N/N=C(\C)c1cccc(C)n1 | > 100 | 28.9 | > 100 | > 100 | 26.4 | – | > 100 | > 100 | > 100 | > 100 | – | – | – | – | – | – | – | – | – | –
CCOC(=O)CCC(NC(=O)c1ccc(Nc2nc3ccccc3nc2C(=O)OCC)cc1)C(=O)OCC (stereo unspecified) | > 100 | > 100 | 26.3 | > 23.8 | > 100 | > 100 | – | > 40.7 | > 100 | 24.4 | – | – | – | – | – | – | – | – | – | –

From PubChem BioAssay (NCI)
